Data taken from patent publication US5593988A, “Therapeutic agent for osteoporosis and diazepine compound” (Yoshitomi Pharmaceutical Industries, Ltd., priority 1991, dated 1997).

What follows are compounds tested on bone resorption (parietal bone) (assay: Bone resorption-inhibitory activity (45Ca release from newborn mouse parietal bone, hPTH (1-34) stimulated, method of Raisz)). Conditions: 5 μM, Table 20, average of four pairs, read-out: bone resorption-inhibitory action, % against control.
Format: cell-based, ICR mouse
Text: The method for determining the bone resorption-inhibitory activity of the Compound (I) and the results are shown in the following.
Bone resorption-inhibitory activity
The determination of the bone resorption-inhibitory activity basically followed the method of Raisz [J. Clin. Invest., vol. 44, pp. 103-116 (1965)].
A 1-2 days old new born ICR mouse was intraperitoneally administered with 1.5μ Ci ^45 Ca (CaCl2 solution of isotope of calcium) and parietal bone was asceptically removed the next day. The parietal bone was split into two along the central sature line and one of them was used as a control and the other was used for the experiment. The bone was preincubated in 0.5 ml of a BGJb medium (Fitton-Jackson modification, GIBCO Laboratories, U.S.A.) added with the test compound to a concentration of 5 μM or 20 μM and bovine serum albumin (1 mg/ml) at 37° C. for 2 days, and further incubated in the aforementioned medium containing 50 nM hPTH (1-34) for 3 days. After the incubation, the radioactivity of ^45 Ca in the medium and in the bone was measured and the ratio (%) of ^45 Ca released from the bone into the medium was calculated. [formula]
Using the bone obtained from the same mouse and treated in the same manner without the test compound as a control, the ratio (%) against the control was calculated according to the following equation. [formula]
The average of these values obtained from four pairs from each group was calculated.

Compared with CCCCc1cc2c(s1)-n1c(C)nnc1C(NC(=O)Nc1cccc(C)c1)N=C2c1ccc(Cl)cc1 (stereo not shown) [compound 98], CCCCCCc1cc2c(s1)-n1c(C)nnc1C(NC(=O)Nc1cccc(C)c1)N=C2c1ccc(Cl)cc1 (stereo not shown) [compound 78] is higher in inhibition at 5 µM: 35% for the first, 45.4% for the second.

Going from CCc1cc2c(s1)-n1c(C3CCCCC3)nnc1C(NC(=O)Nc1ccccc1OC)N=C2c1ccccc1Cl (stereo not shown) [compound 100] to CCc1cc2c(s1)-n1c(C3CCCCC3)nnc1C(NC(=O)Nc1cccc(C)c1)N=C2c1ccccc1Cl (stereo not shown) [compound 84], the inhibition at 5 µM rises from 55.5% to 65.3%.

Compared with CCc1cc2c(s1)-n1c(C)nnc1C(NC(=O)Nc1cccc(C)c1)N=C2c1ccc(C)cc1 (stereo not shown) [compound 86], CCc1cc2c(s1)-n1c(C)nnc1C(NC(=O)Nc1cccc(C)c1)N=C2c1ccccc1 (stereo not shown) [compound 88] is higher in inhibition at 5 µM: 30.3% for the first, 33.8% for the second.

First: CCc1cc2c(s1)-n1c(C)nnc1C(NC(=S)Nc1ccccc1)N=C2c1ccccc1Cl (stereo not shown) [compound 93]
Second: CCc1cc2c(s1)-n1c(C)nnc1C(NC(=O)Nc1ccccc1OC)N=C2c1ccc(Cl)cc1 (stereo not shown) [compound 90]
The inhibition at 5 µM of the first is higher: 63.5% for the first, 34.2% for the second.

Work on Cc1cccc(NC(=O)NC2N=C(c3ccccc3Cl)c3c(sc(C)c3C)-n3c(C)nnc32)c1 (stereo not shown) [compound 83] yielded an inhibition at 5 µM of 35%.

Same assay, conditions: 20 μM, Table 20, average of four pairs, read-out: bone resorption-inhibitory action, % against control

Going from Cc1nnc2n1-c1sc(CCC(=O)N3CCN(C(c4ccccc4)c4ccccc4)CC3)cc1C(c1ccccc1Cl)=NC2 [compound 36] to Cc1nnc2n1-c1sc(CCCc3ccc(CC(C)C)cc3)cc1C(c1ccccc1Cl)=NC2 [compound 11], the inhibition at 20 µM rises from 21.9% to 23.4%.

First: Cc1nnc2n1-c1sc(CCc3ccc(CC(C)C)cc3)cc1C(c1ccc(OCCN(C)C)cc1)=NC2 [compound 32]
Second: CC(C)Cc1ccc(CCc2cc3c(s2)N(CCN(C)C)C(=O)CN=C3c2ccccc2Cl)cc1 [compound 64]
The inhibition at 20 µM of the first is lower: 16% for the first, 25.2% for the second.

First: CCc1cc2c(s1)-n1c(C)nnc1C(NC(=O)c1ccccc1)N=C2c1ccccc1Cl (stereo not shown) [compound 50]
Second: CCc1cc2c(s1)-n1c(C)nnc1C(NC(=O)Cc1ccccc1)N=C2c1ccccc1Cl (stereo not shown) [compound 255]
The inhibition at 20 µM of the first is lower: 26.4% for the first, 54.3% for the second.

First: CCCCCCCCc1ccc(CCc2cc3c(s2)-n2c(C)nnc2CN=C3c2ccccc2Cl)cc1 [compound 29]
Second: Cc1nnc2n1-c1sc(CCc3ccc(CC(C)C)cc3)cc1C(c1ccccc1Cl)=NC2c1ccccc1 (stereo not shown) [compound 44]
The inhibition at 20 µM of the first is higher: 16.4% for the first, 15.7% for the second.

First: CC(C)Cc1ccc(CCc2cc3c(s2)-n2c(nnc2C(C)(C)C)C(C)N=C3c2ccccc2Cl)cc1 (stereo not shown) [compound 34]
Second: Cc1nnc2n1-c1sc(CCc3ccc(CC(C)C)cc3)cc1C(c1ccccc1Cl)=NC2Cc1ccccc1 (stereo not shown) [compound 46]
The inhibition at 20 µM of the first is lower: 15.5% for the first, 21.1% for the second.

Going from CCc1cc2c(s1)-n1c(C)nnc1C(NS(=O)(=O)c1ccc(C)cc1)N=C2c1ccc(Cl)cc1 (stereo not shown) [compound 254] to CCc1cc2c(s1)-n1c(C)nnc1C(CC(=O)Nc1ccccc1OC)N=C2c1ccc(Cl)cc1 (stereo not shown) [compound 250], the inhibition at 20 µM falls from 32.5% to 27.3%.

Going from CCCCCCCCCCCc1nnc2n1-c1sc(CC)cc1C(c1ccc(C)cc1)OC2 (stereo not shown) [compound 357] to CCc1cc2c(s1)-n1c(CCCc3ccc(CC(C)C)cc3)nnc1COC2c1ccc(Cl)cc1 (stereo not shown) [compound 330], the inhibition at 20 µM rises from 24.7% to 35.6%.

Compared with CCCN(CCC)C(=O)C1Cc2sc3c(c2C1)C(c1ccccc1Cl)=NCc1nnc(C)n1-3 (stereo not shown) [compound 53], CCc1cc2c(s1)-n1c(C)nnc1C(NC(=O)Nc1cccc(C)c1)N=C2c1ccccc1Cl (stereo not shown) [compound 51] is lower in inhibition at 20 µM: 73.5% for the first, 26.9% for the second.

For CCc1cc2c(s1)-n1c(C)nnc1C(NC(=O)c1cc3ccccc3[nH]1)N=C2c1ccccc1Cl (stereo not shown) [compound 48], the inhibition at 20 µM was 25.7%.

Same assay, conditions: 20 μM, Table 21, average of four pairs, read-out: bone resorption-inhibitory action, % against control

Going from CCCCCCCCCCCc1nnc2n1-c1ccccc1C(c1ccc(Cl)cc1)OC2 (stereo not shown) [compound 516] to CCCCCCCCCCCc1nnc2n1-c1ccccc1C(c1ccc(Cl)cc1)NC2 (stereo not shown) [compound 515], the inhibition at 20 µM rises from 22.4% to 29.9%.

Same assay, conditions: Table 20, read-out: IC50 (figures in parentheses), bone resorption-inhibitory action

CCc1cc2c(s1)-n1c(C)nnc1C(NC(=O)Nc1ccccc1OC)N=C2c1ccc(Cl)cc1 (stereo not shown) [compound 90] showed an IC50 of 250 nM.

Same assay, conditions: read-out: IC50 (figures in parentheses), bone resorption-inhibitory action

In the case of COc1ccccc1NC(=O)NC1N=C(c2ccccc2)c2cc(Cl)ccc2-n2c(C)nnc21 (stereo not shown) [compound 532], the IC50 is reported as 930 nM.

Same assay, conditions: read-out: bone resorption-inhibitory action, % against control

First: CCCCCCCCCCc1cc2c(s1)-n1c(C)nnc1CN=C2c1ccccc1OC [compound 25]
Second: CCCCCCCCCCCCc1cc2c(s1)-n1c(C)nnc1CN=C2c1ccccc1Cl [compound 27]
The inhibition at 20 µM of the first is higher: 17.5% for the first, 17% for the second.

Compared with Cc1cccc(N2C(=O)NC3(N=C(c4ccc(Cl)cc4)c4ccccc4-n4c(C)nnc43)C2=O)c1 (stereo not shown) [compound 531], CCOC(=O)C1(NC(=O)Nc2cccc(C)c2)N=C(c2ccc(Cl)cc2)c2ccccc2-n2c(C)nnc21 (stereo not shown) [compound 501] is lower in inhibition at 20 µM: 34.4% for the first, 29.5% for the second.

Compared with Cc1nnc2n1-c1ccccc1C(c1ccc(Cl)cc1)=NC2NS(=O)(=O)Cc1ccccc1 (stereo not shown) [compound 507], Cc1nnc2n1-c1ccccc1C(c1ccc(Cl)cc1)=NC2NC(=O)OCc1ccccc1 (stereo not shown) [compound 504] is lower in inhibition at 20 µM: 35.6% for the first, 24.6% for the second.

Going from CCCCCCCCc1cc2c(s1)N(CCN(C)C)C(=O)CN=C2c1ccccc1Cl [compound 62] to CCCCCCc1cc2c(s1)NC(=O)CN=C2c1ccccc1Cl [compound 60], the inhibition at 20 µM rises from 27.4% to 58.6%.

Compared with Cc1nnc2n1-c1sc(Cc3ccc(CC(C)C)cc3)cc1C(c1ccccc1Cl)=NC2 [compound 28], CCCc1nnc2n1-c1sc(CCc3ccc(CC(C)C)cc3)cc1C(c1ccccc1Cl)=NC2 [compound 35] is higher in inhibition at 20 µM: 16.5% for the first, 20% for the second.

Going from CC(C)Cc1ccc(CCc2cc3c(s2)-n2cnnc2CN=C3c2ccccc2Cl)cc1 [compound 6] to Cc1nnc2n1-c1sc(CCc3ccc(CC(C)C)cc3)cc1C(c1cccc(Cl)c1)=NC2 [compound 5], the inhibition at 20 µM falls from 30.2% to 26.7%.

Compared with CCc1cc2c(s1)-n1c(noc1=O)CN=C2c1ccccc1Cl [compound 66], CCc1cc2c(s1)-n1ccnc1CN=C2c1ccccc1Cl [compound 67] is lower in inhibition at 20 µM: 56.3% for the first, 55.3% for the second.

Compared with Cc1nnc2n1-c1ccccc1C(c1ccccc1)=NC2COC(=O)Cc1ccccc1 (stereo not shown) [compound 511], Cc1nnc2n1-c1ccccc1C(c1ccc(Cl)cc1)=NC2Cc1c[nH]c2ccccc12 (stereo not shown) [compound 508] is higher in inhibition at 20 µM: 37.7% for the first, 48.1% for the second.

First: Cc1cccc(NC(=O)NC2N=C(c3cccs3)c3ccccc3-n3c(C)nnc32)c1 (stereo not shown) [compound 521]
Second: Cc1nnc2n1-c1ccccc1C(c1ccc(Cl)cc1)=NC2NC(=O)Nc1cccnc1 (stereo not shown) [compound 523]
The inhibition at 20 µM of the first is higher: 29.6% for the first, 26.7% for the second.

Going from COc1ccccc1NC(=O)NC1N=C(c2ccc(Cl)cc2)c2ccccc2-n2c(C)nnc21 (stereo not shown) [compound 502] to COc1ccccc1NC(=O)NCC1N=C(c2ccc(Cl)cc2)c2ccccc2-n2c(C)nnc21 (stereo not shown) [compound 505], the inhibition at 20 µM rises from 31.8% to 53.5%.

Going from Cc1nnc2n1-c1ccccc1C(c1ccc(Cl)cc1)=NC2NC(=O)C(=O)Nc1ccccc1 (stereo not shown) [compound 530] to Cc1nnc2n1-c1ccccc1C(c1ccc(Cl)cc1)=NC2NC(=O)Nc1ccccn1 (stereo not shown) [compound 522], the inhibition at 20 µM rises from 28.2% to 32.8%.

First: Cc1nnc2n1-c1ccc(Cl)cc1C(c1ccccc1Cl)=NC2 [compound 68]
Second: COc1ccccc1NC(=O)NC1N=C(c2ccccc2)c2cc(Cl)ccc2-n2c(C)nnc21 (stereo not shown) [compound 532]
The inhibition at 20 µM of the first is higher: 57.5% for the first, 28.1% for the second.

Going from Cc1nnc2n1-c1sc(CCCN3CCOCC3)cc1C(c1ccccc1Cl)=NC2C (stereo not shown) [compound 40] to Cc1nnc2n1-c1sc(CCC(=O)N3CCOCC3)cc1C(c1ccccc1Cl)=NC2C (stereo not shown) [compound 38], the inhibition at 20 µM rises from 32.8% to 46%.

Going from CCc1cc2c(s1)-n1c(C)nnc1C(OC(=O)Nc1cccc(C)c1)N=C2c1ccc(OC)cc1 (stereo not shown) [compound 257] to Cc1nnc2n1-c1sc(CCc3ccc(CC(C)C)cc3)cc1C(c1ccc(O)cc1)=NC2 [compound 31], the inhibition at 20 µM falls from 27.1% to 26.4%.
